The supplement of paper PMC10307832

compound: COc1cc(-c2nn([C@H]3CC[C@H](N4CCN(C(C)=O)CC4)CC3)c3ncnc(N)c23)ccc1NC(=O)c1cc2ccccc2n1C + CC(C)C[C@H](NC(=O)[C@H](Cc1ccccc1)NC(=O)c1cnccn1)B(O)O [Bortezomib] (partner 0.002 µM); assay: relative viability (nuclei count vs DMSO), 5 days (fraction); higher = more cells survive; details: first compound 0.128 µM
How it was run: (§1)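 After 5 days of treatment, lung cancer cells in 1536-well plates were fixed and stained in a single step (final 0.05% Triton X-100, 1% formaldehyde, 1 ug/ml Hoechst) and their nuclei counted on 4× images. Treatment had been applied by pin tool the day after seeding as one drug alone or as a fixed anchor-drug dose with five library-drug doses (not always all listed) in √10 steps. Relative viability is the nuclei count of treated wells divided by that of vehicle wells, and values are medians of duplicate plates.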

Row | Cell Line | relative viability
1 | LOU-NH91 | 0.515
2 | ChaGo-K-1 | 0.865
3 | NCI-H2405 | 0.936
4 | HOP-62 | 0.992
5 | LU99A | 1.04
6 | BEN | 0.824
7 | HARA | 1.1
8 | HCC-78 | 0.566
9 | NCI-H322M | 1.17
10 | LCLC-97TM1 | 0.567
11 | NCI-H2009 | 1.06
12 | A-427 | 0.935
13 | NCI-H441 | 0.665
14 | NCI-H661 | 0.709
15 | NCI-H1734 | 1.1
16 | NCI-H460 | 1.09

Row | Cell Line | relative viability
17 | NCI-H2347 | 1.15
18 | SK-LU-1 | 1.17
19 | 201T | 1.06
20 | NCI-H1915 | 0.931
21 | HCC-827 | 0.99
22 | LXF-289 | 1
23 | NCI-H23 | 1.18
24 | NCI-H647 | 0.877
25 | CAL-12T | 0.938
26 | NCI-H1651 | 0.939
27 | EPLC-272H | 0.952
28 | NCI-H2228 | 0.804
29 | NCI-H1355 | 1.22
30 | NCI-H3122 | 1.01
31 | NCI-H1437 | 0.365

same assay, conditions: first compound 1.28 µM

Row | Cell Line | relative viability
32 | LOU-NH91 | 0.518
33 | ChaGo-K-1 | 0.973
34 | NCI-H2405 | 0.668
35 | HOP-62 | 0.621
36 | LU99A | 1.3
37 | BEN | 0.53
38 | HARA | 0.803
39 | HCC-78 | 0.43
40 | NCI-H322M | 1.17
41 | LCLC-97TM1 | 0.584
42 | NCI-H2009 | 0.962
43 | A-427 | 0.96
44 | NCI-H441 | 0.616
45 | NCI-H661 | 0.384
46 | NCI-H1734 | 0.756
47 | NCI-H460 | 0.99

Row | Cell Line | relative viability
48 | NCI-H2347 | 0.697
49 | SK-LU-1 | 0.783
50 | 201T | 1.03
51 | NCI-H1915 | 0.929
52 | HCC-827 | 0.676
53 | LXF-289 | 1.18
54 | NCI-H23 | 0.883
55 | NCI-H647 | 0.588
56 | CAL-12T | 0.972
57 | NCI-H1651 | 0.84
58 | EPLC-272H | 0.902
59 | NCI-H2228 | 0.559
60 | NCI-H1355 | 1.15
61 | NCI-H3122 | 0.788
62 | NCI-H1437 | 0.585

compound: CO[C@@H]1[C@H](N(C)C(=O)c2ccccc2)C[C@H]2O[C@]1(C)n1c3ccccc3c3c4c(c5c6ccccc6n2c5c31)C(=O)NC4 [Midostaurin] + Nc1nc2[nH]cc(CCc3ccc(C(=O)N[C@@H](CCC(=O)O)C(=O)O)cc3)c2c(=O)[nH]1 [Pemetrexed] (partner 0.2 µM); assay: as above; details: first compound 0.01 µM
How it was run: as §1

Row | Cell Line | relative viability
63 | LOU-NH91 | 0.317
64 | ChaGo-K-1 | 0.25
65 | NCI-H2405 | 1.11
66 | HOP-62 | 0.332
67 | LU99A | 0.182
68 | BEN | 0.809
69 | HARA | 0.225
70 | HCC-78 | 0.926
71 | NCI-H322M | 0.692
72 | LCLC-97TM1 | 0.164
73 | NCI-H2009 | 0.956
74 | A-427 | 1.04
75 | NCI-H441 | 0.304
76 | NCI-H661 | 0.915
77 | NCI-H1734 | 0.421
78 | NCI-H460 | 0.0611

Row | Cell Line | relative viability
79 | NCI-H2347 | 0.459
80 | SK-LU-1 | 0.99
81 | 201T | 0.345
82 | NCI-H1915 | 0.46
83 | HCC-827 | 0.249
84 | LXF-289 | 0.891
85 | NCI-H23 | 0.635
86 | NCI-H647 | 0.185
87 | CAL-12T | 1.19
88 | NCI-H1651 | 0.626
89 | EPLC-272H | 0.229
90 | NCI-H2228 | 0.35
91 | NCI-H1355 | 1.04
92 | NCI-H3122 | 0.201
93 | NCI-H1437 | 0.311

same assay, conditions: first compound 0.03162 µM

Row | Cell Line | relative viability
94 | LOU-NH91 | 0.399
95 | ChaGo-K-1 | 0.266
96 | NCI-H2405 | 1
97 | HOP-62 | 0.278
98 | LU99A | 0.165
99 | BEN | 0.674
100 | HARA | 0.309
101 | HCC-78 | 0.857
102 | NCI-H322M | 0.527
103 | LCLC-97TM1 | 0.137
104 | NCI-H2009 | 0.878
105 | A-427 | 0.888
106 | NCI-H441 | 0.259
107 | NCI-H661 | 0.82
108 | NCI-H1734 | 0.405
109 | NCI-H460 | 0.0661

Row | Cell Line | relative viability
110 | NCI-H2347 | 0.416
111 | SK-LU-1 | 0.92
112 | 201T | 0.311
113 | NCI-H1915 | 0.472
114 | HCC-827 | 0.251
115 | LXF-289 | 0.903
116 | NCI-H23 | 0.671
117 | NCI-H647 | 0.2
118 | CAL-12T | 1.19
119 | NCI-H1651 | 0.53
120 | EPLC-272H | 0.357
121 | NCI-H2228 | 0.343
122 | NCI-H1355 | 1.07
123 | NCI-H3122 | 0.185
124 | NCI-H1437 | 0.3

same assay, conditions: first compound 0.1 µM

Row | Cell Line | relative viability
125 | LOU-NH91 | 0.37
126 | ChaGo-K-1 | 0.256
127 | NCI-H2405 | 0.974
128 | HOP-62 | 0.326
129 | LU99A | 0.167
130 | BEN | 0.665
131 | HARA | 0.222
132 | HCC-78 | 0.946
133 | NCI-H322M | 0.677
134 | LCLC-97TM1 | 0.193
135 | NCI-H2009 | 0.921
136 | A-427 | 0.94
137 | NCI-H441 | 0.222
138 | NCI-H661 | 0.902
139 | NCI-H1734 | 0.446
140 | NCI-H460 | 0.0666
141 | NCI-H2347 | 0.417
142 | SK-LU-1 | 0.836
143 | 201T | 0.323
144 | NCI-H1915 | 0.506
145 | HCC-827 | 0.241
146 | LXF-289 | 0.888
147 | NCI-H23 | 0.533
148 | NCI-H647 | 0.184
149 | CAL-12T | 1.28
150 | NCI-H1651 | 0.618
151 | EPLC-272H | 0.256
152 | NCI-H2228 | 0.313
153 | NCI-H1355 | 1.14
